This test deals with S. aureus (Gram-positive bacterium) ATCC 6538. The experiment in a line: Fluorescence detection of microcolonies on membrane after permeabilization and 5/6-CFDA labeling. The following applies: agent used alone. It is filed as cell-based. On the procedure: The tested strains of E. coli (Gram-negative bacterium) ATCC 8739 and of S. aureus (Gram-positive bacterium) ATCC 6538 or B. subtilis (Gram-positive bacterium) ATCC 6633 were preserved in cryotubes (Dutscher, ref. 028049) frozen at −80° C. prepared from freeze-dried strains obtained from collections.
For all the tests, the bacteria strains are diluted in tubes of peptone water (Biomérieux, ref. 42111). A cascade dilution is performed by adding 1 ml of the cryotube of the strain used to 9 ml of the tube of peptone water until the desired dilution is obtained. The concentration was adjusted in order to obtain on average 30 bacteria per sample. This concentration was verified on a Petri dish by a conventional count test on agar medium. […]
A universal fluorogenic marker, namely 5/6-carboxyfluorescein diacetate (CFDA) (Sigma 21879-100MG) diluted in DMSO, is added to the permeabilization compositions in order to reach a final concentration of 100 μg/ml. […] The membrane is then removed from the labeling solution and placed in an illuminator equipped with a camera in order to measure the fluorescence emitted between 520 and 530 nm.
The fluorescence intensity results summarized in Tables 1 to 3 below correspond to the light energy (luminescence) captured and recorded to the nearest pixel by the CCD camera using the Sherlock image analyzing software (Insosys Inc.). […]

SMILES strings stand for the structures.

On to `CCCCCCCCO[C@@H]1O[C@H](CO)[C@@H](O)[C@H](O)[C@H]1O` [N-Octyl-β-D-glucopyranoside], for which the “Permeabilization of Gram-positive bacteria, in words” value is listed as “unsuitable”.

The record behind these values is US8097404B2, “Composition and method for cell permeabilization comprising N-octyl-β-D-glucopyranoside, sodium polyphosphates, rubidium chloride and/or lithium chloride for detecting living cells on a membrane” (Millipore Corporation, priority 2008, dated 2012).
